Values quoted from earlier work, collected in patent US20070166273A1, “Skin treatment educational kit” (priority 2006, published 2007).

What was measured:
[1] = test system: mice; settings: 0.025 mg/kg/day topically to mice (0.1 times max human systemic dose)
[2] = test system: New Zealand White rabbits; settings: New Zealand White rabbits (3.3 times max human systemic dose)
[3] = test system: cynomolgus monkey
[4] = dermally applied, 1.0 mg/kg/day (8 times max human systemic dose)
[5] = Ames assay
[6] = test system: hamsters; settings: oral
[7] = test system: rats; settings: oral, 2.5 mg/kg/day (20 times max human systemic dose)
[8] = test system: rats; settings: oral, rats (16 times the human topical dose)
[9] = test system: mice; settings: oral
[10] = test system: rats; settings: dermal
[11] = test system: human
[12] = test system: subhuman primates; settings: oral
[13] = test system: rats; settings: oral
[14] = test system: mouse; settings: in vivo mouse micronucleus assay
[15] = test system: rabbits; settings: 0.5 mg/kg/day (8 times max human systemic dose)
[16] = test system: Wistar rats; settings: orally or topically, Wistar rats (8 times max human systemic dose)
[17] = test system: CD-1 mice; settings: 91-week dermal
[18] = test system: hairless albino mice; settings: concurrent exposure
[19] = test system: pigmented mice; settings: 0.05% tretinoin
[20] = test system: Wistar rats

CC1=C(/C=C/C(C)=C/C=C/C(C)=C/C(=O)O)C(C)(C)CCC1 [tretinoin, all-trans-retinoic acid]
carcinogenic potential [1]: no evidence of carcinogenic potential | dose with increased incidence of domed head and hydrocephaly [2]: greater than 0.2 mg/kg/day | dose with fetal malformations ([3]; cynomolgus monkey): ≥ 10 mg/kg/day | embryolethality and abortion ([3]; cynomolgus monkey): dose-related increase | dose at which no fetal malformations were observed ([3]; cynomolgus monkey (83 times max human systemic dose)): 5 mg/kg/day | skeletal variations ([3]; cynomolgus monkey, all doses): increased skeletal variations were observed at all doses | fetotoxicity and teratogenicity [4]: may be fetotoxic, but not overly teratogenic | mutagenic potential [5]: negative | teratogenicity [6]: teratogenic | fetotoxicity [7]: fetotoxic, resulting in skeletal variations and increased intrauterine death | dose with decreased survival of neonates and growth retardation [8]: > 2 mg/kg/day | teratogenicity [9]: teratogenic | sperm count and motility ([10]; 0.5 mg/kg/day, rats (4 times max human systemic dose)): slight (not statistically significant) decreases | number and percent of nonviable embryos ([10]; females treated with 0.25 mg/kg/day and above (2 times max human systemic dose)): slight (not statistically significant) increases | reports describing holoprosencephaly ([11]; of the thirty human cases): five | human cases of temporally associated congenital malformations ([11]; two decades of clinical use): Thirty | teratogenicity [12]: teratogenic | teratogenicity [13]: teratogenic | mutagenic potential [14]: negative | fetotoxicity and teratogenicity ([15]; dermally applied): may be fetotoxic, but not overly teratogenic | fetotoxicity ([15]; topical): fetotoxic | teratogenic and fetotoxic dose [16]: greater than 1 mg/kg/day | cutaneous squamous cell carcinomas and papillomas in the treatment area ([17]; 0.017% and 0.035% formulations (max systemic 0.5 and 1.0 mg/kg/day), female CD-1 mice): observed in some female mice | liver tumors ([17]; 0.017% and 0.035% formulations, male CD-1 mice): dose-related incidence | tumorigenic potential of carcinogenic doses of UVB and UVA light [18]: may enhance the tumorigenic potential | enhancement of photocarcinogenesis [19]: dark pigmentation did not overcome the enhancement of photocarcinogenesis | anomalies: humerus bent ([20]; 10 mg/kg/day topically applied): 6% | anomalies: humerus short ([20]; 10 mg/kg/day topically applied): 13% | anomalies: os parietal incompletely ossified ([20]; 10 mg/kg/day topically applied): 14% | dose with evidence for teratogenicity (shortened or kinked tail) ([20]; topical, Wistar rats (8 times max human systemic dose)): greater than 1 mg/kg/day
